Results reported in patent EP0321175A1, “Indane derivatives” (BEECHAM GROUP PLC, priority 1987, dated 1989).

How the values were obtained:
[1] = tested on: Spontaneously hypertensive rats; assay: Blood pressure lowering activity, tail cuff method; assay type: in vivo
Method: Systolic blood pressure were recorded by a modification of the tail cuff method described by I.M. Claxton, M.G. Palfreyman, R.H. Poyser, R.L. Whiting, European Journal of Pharmacology, 37, 179 (1976). A W+W BP recorder, model 8005 was used to display pulses.Prior to all measurements rats were placed in a heated environment (33.5 ± 0.5°C) before transfer to a restraining cage. Each determination of blood pressure was the mean of at least 6 readings. Spontaneously hypertensive rats (ages 12-18 weeks) with systolic blood pressures >180 mmHg were considered hypertensive.

[2] = tested on: guinea pig tracheal spiral preparations; assay: Bronchodilation in vitro; guinea pig tracheal spiral preparations; assay type: cell-based; conditions: relative to total relaxation evoked in the presence of 10⁻³M isoprenaline; for Emax: Cavia porcellus, read-out: I.A. (Intrinsic Activity, efficacy)
Method: Male guinea pigs (300-600g) were stunned by a blow to the head and bled from the carotid artery. The trachea was exposed, dissected free of connective tissue, and transferred to oxygenated krebs solution at 37°C. Next, spirals (2 per trachea) were prepared by cutting the whole trachea spirally along its longitudinal axis and then dividing this spiral lengthwise. Each preparation was mounted, using silk thread, in a 10ml organ bath filled with krebs solution at 37°C and bubbled with 5% CO₂ with O₂. The resting tension of the preparations was set at 2g and changes in muscle tension were monitored isometrically by means of a UFI (2oz) force and displacement transducer (Ormed Ltd) connected to a Linseis pen recorder. All preparations were allowed to equilibrate for 60 minutes. During this equilibration period the preparations were washed by upward displacement at 15 minute intervals and, if necessary, the resting tension was readjusted to 2g using a mechanical micromanipulator system.
Once a steady resting tension had been obtained, the preparations were dosed cumulatively with the test compound (10⁻⁸-2x10⁻⁵M), and finally a maximum relaxation achieved by addition of 10⁻³M isoprenaline. The fall in tension evoked by the test compound was expressed as a percentage of the total relaxation evoked in the presence of 10⁻³M isoprenaline. Appropriate concentration-relaxation curves were then constructed and values for potency (IC₅₀) and efficacy (Intrinsic Activity, I.A.) were obtained.
The compositions of Krebs solution is: sodium chloride 118.07mM, sodium hydrogen carbonate 26.19mM, potassium chloride 4.68mM, potassium orthophosphate 1.18mM, magnesium sulphate septahydrate 1.8mM and calcium chloride 2.52mM;pH ca. 7.45.

Row | Structure (SMILES) | % change in systolic B.P. ([1]; 1 mg/kg p.o., 1 h post dose) | % change in systolic B.P. ([1]; 1 mg/kg p.o., 2 h post dose) | % change in systolic B.P. ([1]; 1 mg/kg p.o., 4 h post dose) | Emax [2] [%] | also measured
1 | CC1(C)C=C(n2ccccc2=O)c2cc(C#N)ccc21 [Example 8, 5-Cyano-1,1-dimethyl-3-(2-pyridon-1-yl)ind-2-ene] | -12 ± 5% | -15 ± 3% | -26 ± 8% | 77 | % change in systolic B.P. ([1]; 1 mg/kg p.o., 6 h post dose): -21 ± 2%
2 | CC1(C)c2ccc(N)cc2[C@@H](n2ccccc2=O)[C@@H]1O (relative stereo) [Example 9, Trans-5-amino-1,1-dimethyl-3-(2-pyridon-1-yl)indan-2-ol] |  |  |  |  | % change in systolic B.P. ([1]; 3 mg/kg p.o., 1 h post dose): -12 ± 2%; % change in systolic B.P. ([1]; 3 mg/kg p.o., 2 h post dose): -16 ± 3%; % change in systolic B.P. ([1]; 3 mg/kg p.o., 4 h post dose): -14 ± 4%; % change in systolic B.P. ([1]; 3 mg/kg p.o., 6 h post dose): -11 ± 2%
3 | CC1(C)c2ccc([N+](=O)[O-])cc2[C@@H](n2ccccc2=O)[C@@H]1O [Example 5, Trans-1,1-dimethyl-5-nitro-3-(2-pyridon-1-yl)indan-2-ol] | -40 (n=1) % | -43 (n=1) % | -43 ± 4 (n=1) % | 91 | % change in systolic B.P. ([1]; 1 mg/kg p.o., 6 h post dose): -31 ± 5 (n=5) %
4 | CC1(C)C=C(N2CCCCC2=O)c2ccc(C(F)(F)F)cc21 [Example 16, 1,1-dimethyl-3-(2-oxopiperidin-1-yl)-6-trifluoromethylind-2-ene] |  |  |  | 89 | 
5 | O=C(N[C@@H]1c2cc([N+](=O)[O-])ccc2C[C@H]1O)c1ccc(F)cc1 [Example 10, Trans-1-N-(4-fluorobenzamido)-6-nitroindan-2-ol] |  |  |  | 59 | 
6 | CC1(C)c2ccc(C#N)cc2[C@@H](n2ccccc2=O)[C@@H]1O [Example 7, Trans-5-cyano-1,1-dimethyl-3-(2-pyridon-1-yl)-indan-2-ol] | -31 ± 3% | -22 ± 4% | -20 ± 4% | 81 | % change in systolic B.P. ([1]; 1 mg/kg p.o., 6 h post dose): -12 ± 6%
7 | C[C@@H]1CCC(=O)N1[C@@H]1c2cc([N+](=O)[O-])ccc2C(C)(C)[C@H]1O (mixture of isomers) [Example 26, Trans-1,1-Dimethyl-5-nitro-3-(5-(R)-methyl-2-oxopyrrolidin-1-yl)indan-2-ol] |  |  |  | 98 | 
8 | CC1(C)C=C(N2CCCCC2=O)c2cc([N+](=O)[O-])ccc21 [Example 4, 1,1-dimethyl-5-nitro-3-(2-oxopiperidin-1-yl)ind-2-ene] |  |  |  | 94 | 
9 | CCc1ccc2c(c1)[C@@H](N1CCCCC1=O)[C@H](O)C2(C)C (relative stereo) [Example 17, Trans-1,1-Dimethyl-5-ethyl-3-(2-oxopiperidin-1-yl)indan-2-ol] |  |  |  | 76 | 
10 | CC1(C)c2ccc([N+](=O)[O-])cc2[C@@H](N2CCCC2=O)[C@@H]1O (relative stereo) [Example 1, trans - 1,1-dimethyl-5-nitro-3-(2-oxopyrrolidin-1-yl)-indan-2-ol] |  |  |  | 88 | % change in systolic B.P. ([1]; 10 mg/kg p.o., 1 h post dose): -48 ± 4(n=4) %; % change in systolic B.P. ([1]; 10 mg/kg p.o., 2 h post dose): -49 ± 6(n=3) %; % change in systolic B.P. ([1]; 10 mg/kg p.o., 4 h post dose): -42 ± 4(n=6) %; % change in systolic B.P. ([1]; 10 mg/kg p.o., 6 h post dose): -30 ± 4(n=6) %
11 | CC1(C)C=C(CN2CCCC2=O)c2cc(C#N)ccc21 [Example 24, 5-Cyano-1,1-dimethyl-3-[(2-oxopyrrolidin-1-yl)methyl]ind-2-ene] |  |  |  | 59 | 
12 | CC1(C)C=C(n2ccccc2=O)c2cc([N+](=O)[O-])ccc21 [Example 6, 1,1-Dimethyl-5-nitro-3-(2-pyridon-1-yl)ind-2-ene] | -18 ± 3% | -18 ± 3% | -13 ± 3% | 95 | 
13 | CCc1ccc2c(c1)[C@@H](n1ccccc1=O)[C@H](O)C2(C)C (relative stereo) [Example 23, Trans 1,1-Dimethyl-5-ethyl-3-(2-pyridon-1-yl)indan-2-ol] |  |  |  |  | I.A. (Intrinsic Activity, efficacy) [2]: 0.92
14 | CC1(C)c2ccc([N+](=O)[O-])cc2[C@@H](N2CCCCC2=O)[C@@H]1O (relative stereo) [Example 3, Trans 1,1-Dimethyl-5-nitro-3-(2-oxopiperidin-1-yl) indan-2-ol] | -33 ± 5 (n=5) % | -17 ± 3 (n=4) % | -22 ± 4 (n=6) % | 89 | % change in systolic B.P. ([1]; 1 mg/kg p.o., 6 h post dose): -19 ± 5 (n=6) %
15 | C[C@@H]1CCC(=O)N1C1=CC(C)(C)c2ccc([N+](=O)[O-])cc21 [Example 27, 1,1-dimethyl-5-nitro-3-(5-(R)-methyl-2-oxopyrrolidin-1-yl)ind-2-ene] |  |  |  | 93 | 
